Measured values published in paper PMC6030209, “Structure-Activity Investigations and Optimisations of Non-metabolite Agonists for the Succinate Receptor 1” (Scientific Reports, 2018).
Where two headings read alike, the source gives them in different places.

What was measured:
SUCNR1 = assay: Active/inactive grouping by EC50 threshold (ALiBERO training set, Table S1); format: cell-based; settings: active (1) / inactive (0), EC50 threshold of 10 µM
Source text: In brief, starting from the homology model supported by mutagenesis data[4], ALiBERO introduced receptor flexibility via Normal Mode Analysis and Monte Carlo sampling, to generate a small subset of receptor models (pockets). […] For a list of all compounds used in the optimisation protocol, see Table S1. Receptor structures were then chosen based on their ability to discriminate actives from inactives in a retrospective virtual screening using the docking protocol and scoring function in ICM (Molsoft L.L.C., San Diego, CA, USA)[20], as measured by the normalised square root area under the curve (NSQ_AUC). […] The ALiBERO-optimised receptor ensemble was subsequently validated in a virtual ligand screening using an external test set with a higher active:decoy ratio (~1:50).
ALiBERO is an iterative sampling-selection protocol for receptor optimisation that relies on the use of ligand information for selecting the best-performing receptor conformations. Homology models of the mouse SUCNR1 receptor were constructed according to Trauelsen et al.[4] and loaded into ICM (Molsoft L.L.C., San Diego, CA, USA). The structure was converted into an ICM object, thereby assigning protein atom types, optimising hydrogens and His, Pro, Asn, […] and Cys side-chain conformations. […] For a list of all compounds used in the optimisation protocol, see Table S1. ALiBERO was performed using the prepared receptor structure and ligand training set as input. Binding site residues were manually selected based on proximity to the position of MRS2500 in the superimposed structure of the P2Y1 receptor (PDB 4XNW). 100 elastic network normal mode analysis derived conformers were built in order to recreate backbone and side-chain flexibility (T = 300 K). Next, a flexible-ligand static-receptor small-scale virtual screening was performed on each of the receptor conformers, from which several pockets were selected for the following generation. The ligand and decoy molecules were docked into mSUCNR1, represented as pre-calculated potential grids and then sorted according to their ICM VLS scores. The maximum number of complementary pockets for each generation was set to 5 with a maximum of 10 generations. Receptor models were selected based on their combined screening performance, as determined by the normalised square root area under the curve, NSQ_AUC. After each round of virtual screening, an all-atom Monte Carlo side-chain refinement was performed to account for induced-by-ligand changes. NSQ_AUC values were calculated according to Katritch et al.[16].

hSUCNR1 = molecular target: T1, hSUCNR1 (Homo sapiens, UniProt Q9BXA5); assay: IP3 turnover assay in hSUCNR1 transfected HEK-293 cells; format: cell-based; settings: for hSUCNR1 efficacy, %: efficacy relative to succinate (100%), HEK cells (N = 3); for hSUCNR1 efficacy, % / hSUCNR1 % @10^−4M: IP3 turnover; for hSUCNR1 % @10^−4M: relative to succinate (100%)
T1 construct: FLAG (own knowledge: pCMV-Tag 2B is an N-terminal FLAG vector); host or cells: HEK-293, transient transfection with Lipofectamine-2000
T1 sequence (Q9BXA5 1-334): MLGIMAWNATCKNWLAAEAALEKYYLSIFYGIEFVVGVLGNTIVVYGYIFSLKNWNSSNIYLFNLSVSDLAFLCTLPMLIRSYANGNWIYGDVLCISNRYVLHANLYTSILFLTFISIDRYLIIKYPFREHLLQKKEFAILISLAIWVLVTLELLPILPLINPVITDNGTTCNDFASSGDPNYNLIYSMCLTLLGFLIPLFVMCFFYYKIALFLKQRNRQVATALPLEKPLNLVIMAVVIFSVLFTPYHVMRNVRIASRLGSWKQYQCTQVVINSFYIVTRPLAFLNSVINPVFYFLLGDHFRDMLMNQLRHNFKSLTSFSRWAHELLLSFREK
Description: (§1) Receptor constructs for mSUCNR1 and hSUCNR1 were bought from Origene and cloned into the eukaryotic expression vector pCMV-Tag(2B) (Stratagene).
(§2) Transient transfection of the HEK-293 cells was done with Lipofectamine-2000 according to manufacturer’s protocol. Cells were supplemented with fresh medium after 5 h.
(§3) 96-well plates were coated with poly-D-lysine and HEK-293 cells were plated (35.000 cells/well). Cells were transfected for 5 h the following day and subsequently incubated O/N with 0.5 μCi/mL myo[3H]inositol (Perkin Elmer) in 100 μL growth medium. On day 3 cells were washed with 200 µL HBSS/well (Gibco, Life Technologies) followed by a pre-incubation (30 min, 37 °C) with 100 µL HBSS supplemented with 10 mM LiCl. Cells were stimulated with ligand (120 min, 37 °C) and lysed with 50 µL 10 mM formic acid (30 min on ice). In a white 96 well plate 20 µL cell extracts and 80 µL 1:8 diluted YSi scintillation beads (Perkin Elmer) were mixed. The plate was spun down, and a Packard Top Count NXT counter recorded light emission (scintillation) after an 8 h delay.

mSUCNR1 = molecular target: T2, mSUCNR1 (Mus musculus, UniProt Q99MT6); assay: IP3 turnover assay in mSUCNR1 transfected HEK-293 cells; format: cell-based; settings: for mSUCNR1 efficacy, %: efficacy relative to succinate (100%), HEK cells (N = 3); for mSUCNR1 efficacy, % / mSUCNR1 % @10^−4M: IP3 turnover; for mSUCNR1 % @10^−4M: relative to succinate (100%)
T2 construct: FLAG (own knowledge: pCMV-Tag 2B is an N-terminal FLAG vector); host or cells: HEK-293, transient transfection with Lipofectamine-2000
T2 sequence (Q99MT6 1-317): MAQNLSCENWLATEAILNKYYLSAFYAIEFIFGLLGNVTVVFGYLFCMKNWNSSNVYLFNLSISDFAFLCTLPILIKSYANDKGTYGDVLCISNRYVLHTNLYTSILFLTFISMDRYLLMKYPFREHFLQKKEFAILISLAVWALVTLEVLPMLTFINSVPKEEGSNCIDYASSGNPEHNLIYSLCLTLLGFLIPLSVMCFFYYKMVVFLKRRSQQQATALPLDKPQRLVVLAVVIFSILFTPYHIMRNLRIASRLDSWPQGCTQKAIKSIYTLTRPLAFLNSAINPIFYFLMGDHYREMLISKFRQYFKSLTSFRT
Description: as §1, §2, §3

physchem = format: physicochemical; settings: pH 7.4, aqueous buffer, kinetic from dmso stock, 10 mM PBS7.4, 25 °C
Description: Duplicates of a 200 μM solution of the dicarboxylic acids were prepared from 0.01 M PBS7.4 and a 10 mM stock solution in DMSO. The samples were incubated in an Eppendorf® Thermomixer (25 °C, 800 rpm) for 24 h. Afterwards, the samples were centrifuged for 5 min at 11,000 rpm and the supernatant was filtered (0.45 μm PTFE membrane) before analysis by HPLC. The solubility was calculated based on a concentration-absorption curve.

[1] = format: physicochemical; settings: after 70 hours in 10 mM PBS7.4, 37 °C
Description: Triplicates of a 50 μM solution of the test compounds were prepared from 0.01 M PBS7.4 and a 10 mM stock solution in DMSO. The samples were incubated in an Eppendorf® Thermomixer (37 °C, 650 rpm). The samples were briefly vortexed and 50 μL aliquots were withdrawn at the time points 0 h, 24 h, 48 h etc. and analysed immediately on UPLC. The chemical stability in PBS7.4 was determined at every time point in percentage relative to the 0 h time point.

[2] = format: in vitro ADME; settings: 2 hours, 37 °C
Description: FaSSIF, FeSSGF and FaSSGF were prepared in accordance to the manufacturers procedure, Biorelevant.com. Triplicates of a 50 μM solution of the test compounds were prepared from a 10 mM stock solution in DMSO diluted with FaSSGF/FaSSIF/FeSSIF. The samples were incubated in an Eppendorf® Thermomixer (37 °C, 650 rpm). Samples were withdrawn at 0 min and 120 min, centrifuged (10 min at 10,000 rpm) and the supernatant analysed by HPLC/UPLC. The stability was calculated based on peak area of a 0 point sample.

[3] = format: in vitro ADME, mouse; settings: 1 hour, 1 μM, 0.5 mg/mL microsomes
Description: Microsomal stability was studied in mouse liver microsomes (0.5 mg/mL) at a final test compound concentration of 1 μM and performed in triplicates in accordance to the published protocol. In short: Prewarmed (37 °C) 0.1 M PBS7.4, 10 mM NADPH in PBS7.4 and test compound (1 mM in DMSO) were added to an Eppendorf® Tube. The samples were incubated for 5 min at 37 °C before addition of newly thawned microsomes. The samples were mixed by gentle vortexing and incubated for 1 h at 37 °C, 300 rpm in an Eppendorf® Thermomixer. Samples were quenched by addition of ice-cold MeOH/MeCN (1:1) and centrifuged for 5 min at 10,000 g. The supernatant was transferred to HPLC vials and stored in the freezer until analysis by HPLC/UPLC. The metabolic stability was calculated based on a 0 min sample. All compounds were analysed in triplicates.

[4] = dose-response curves of induction of IP3 turnover in SUCNR1 transfected HEK cells (N = 3), read-out: hSUCNR1 pEC50 (converted)
[5] = dose-response curves of induction of IP3 turnover in SUCNR1 transfected HEK cells (N = 3), read-out: mSUCNR1 pEC50 (converted)

SMILES	Active (SUCNR1)	EC50 (hSUCNR1) [nM]	hSUCNR1 efficacy, % (hSUCNR1) [%]	EC50 (mSUCNR1) [nM]	mSUCNR1 efficacy, % (mSUCNR1) [%]	further results
O=C(O)C[C@H](NC(=O)c1ccc(-c2ccc(O)cc2)o1)C(=O)O [Compound 15, (5-(4-Hydroxyphenyl)furan-2-carbonyl)-L-aspartic acid]	1 (active (1))	741	71.1 ± 4.2	151	74.8 ± 2.0	–
O=C(O)C[C@H](NC(=O)c1ccc(-c2ccc(C(F)(F)F)cc2)o1)C(=O)O [Compound 18, (5-(4-(Trifluoromethyl)phenyl)furan-2-carbonyl)-L-aspartic acid]	1 (active (1))	282	81.0 ± 7.2	155	80.6 ± 4.6	–
CS(=O)(=O)CCCOc1ccc(-c2ccc(C(=O)N[C@@H](CC(=O)O)C(=O)O)o2)cc1 [Compound 24, (5-(4-(3-(Methylsulfonyl)propoxy)phenyl)furan-2-carbonyl)-L-aspartic acid]	1 (active (1))	794	63.9 ± 2.4	46.8	74.6 ± 2.1	–
O=C(O)C[C@H](NC(=O)c1cccc(I)c1)C(=O)O [Compound 6, (3-Iodobenzoyl)-L-aspartic acid]	0 (inactive (0))	–	–	–	–	hSUCNR1 % @10^−4M (hSUCNR1): 50% @10^−4M; mSUCNR1 % @10^−4M (mSUCNR1): 64% @10^−4M
COc1ccc(-c2cccc(C(=O)N[C@@H](CC(=O)O)C(=O)O)c2)cc1 [Compound 28, (4′-Methoxy-[1,1′-biphenyl]-3-carbonyl)-L-aspartic acid]	1 (active (1))	–	58.0 ± 2.7	–	64.0 ± 2.5	EC50 (hSUCNR1; [4]): 162 nM; EC50 (mSUCNR1; [5]): 1200 nM
O=C(O)C[C@H](NC(=O)c1ccc(-c2ccc(F)cc2)cc1)C(=O)O [Compound 26, (4′-Fluoro-[1,1′-biphenyl]-4-carbonyl)-L-aspartic acid]	0 (inactive (0))	–	–	–	–	hSUCNR1 % @10^−4M (hSUCNR1): 4% @10^−4M; mSUCNR1 % @10^−4M (mSUCNR1): 7% @10^−4M
O=C(O)C[C@H](NC(=O)c1cccc(-c2ccc(F)cc2)n1)C(=O)O [Compound 27, (6-(4-Fluorophenyl)picolinoyl)-L-aspartic acid]	1 (active (1))	–	78.2 ± 8.0	–	89.3 ± 6.1	EC50 (hSUCNR1; [4]): 933 nM; EC50 (mSUCNR1; [5]): 794 nM
O=C(O)C[C@H](NC(=O)c1cccc(-c2ccc(F)cc2)c1)C(=O)O [Compound 25, (4′-Fluoro-[1,1′-biphenyl]-3-carbonyl)-L-aspartic acid]	1 (active (1))	–	49.7 ± 3.9	–	58.0 ± 4.5	EC50 (hSUCNR1; [4]): 1230 nM; EC50 (mSUCNR1; [5]): 3980 nM; decrease in potency on the mouse orthologue (mSUCNR1; relative to 3): 10 fold
CCOc1ccc(-c2ccc(C(=O)N[C@@H](CC(=O)O)C(=O)O)o2)cc1 [Compound 21, (5-(4-Ethoxyphenyl)furan-2-carbonyl)-L-aspartic acid]	1 (active (1))	–	–	36.3	70.2 ± 2.0	solubility kinetic at 24 h (physchem): > 200 µM; chemical stability [1]: > 98%; stability in FaSSGF ([2]; simulated gastrointestinal fluid FaSSGF): stable; stability in FaSSIF ([2]; simulated gastrointestinal fluid FaSSIF): stable; stability in FeSSIF ([2]; simulated gastrointestinal fluid FeSSIF): stable; stability in mouse liver microsomes [3]: stable
N#Cc1ccc(-c2ccc(C(=O)N[C@@H](CC(=O)O)C(=O)O)o2)cc1 [Compound 19, (5-(4-Cyanophenyl)furan-2-carbonyl)-L-aspartic acid]	1 (active (1))	407	72.1 ± 3.2	162	76.0 ± 1.5	–
COc1ccccc1-c1ccc(C(=O)N[C@@H](CC(=O)O)C(=O)O)o1 [Compound 16, (5-(2-Methoxyphenyl)furan-2-carbonyl)-L-aspartic acid]	1 (active (1))	5130	103.8 ± 7.9	724	78.1 ± 3.1	–
